Assay results reported in PMC8820820, “Feasibility and safety of targeting mitochondria for cancer therapy – preclinical characterization of gamitrinib, a first-in-class, mitochondriaL-targeted small molecule Hsp90 inhibitor” (Cancer Biology & Therapy, 2022).

How the values were obtained:
CYP1A2 = target: T1, CYP1A2 (Homo sapiens, UniProt P05177); experiment: CYP inhibition in liver microsomes; assay type: in vitro ADME
T1 construct: tissue Bioreclamation IVT; host or cells: pooled human liver microsomes
T1 sequence (P05177 1-516): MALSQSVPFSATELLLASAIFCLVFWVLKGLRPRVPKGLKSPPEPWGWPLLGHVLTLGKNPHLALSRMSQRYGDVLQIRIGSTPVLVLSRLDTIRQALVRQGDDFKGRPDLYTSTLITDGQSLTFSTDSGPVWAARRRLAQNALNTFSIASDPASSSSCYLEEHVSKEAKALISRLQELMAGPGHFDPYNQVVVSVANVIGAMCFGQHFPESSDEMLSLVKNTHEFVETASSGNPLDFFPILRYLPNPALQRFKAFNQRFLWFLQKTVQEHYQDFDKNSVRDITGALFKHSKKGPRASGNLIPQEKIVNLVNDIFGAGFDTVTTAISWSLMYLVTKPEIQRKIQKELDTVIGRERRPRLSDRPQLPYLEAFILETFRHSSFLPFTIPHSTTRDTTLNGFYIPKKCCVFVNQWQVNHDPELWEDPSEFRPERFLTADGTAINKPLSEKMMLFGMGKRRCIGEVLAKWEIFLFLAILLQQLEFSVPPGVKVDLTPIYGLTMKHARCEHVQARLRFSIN
Description: CYP inhibition in liver microsomes.

Kir2.1 = target: T2, Kir2.1 (Homo sapiens, UniProt P63252); experiment: Ion channel screening; assay type: cell-based; conditions: 10 µM, pulse 10
T2 sequence (P63252 1-427): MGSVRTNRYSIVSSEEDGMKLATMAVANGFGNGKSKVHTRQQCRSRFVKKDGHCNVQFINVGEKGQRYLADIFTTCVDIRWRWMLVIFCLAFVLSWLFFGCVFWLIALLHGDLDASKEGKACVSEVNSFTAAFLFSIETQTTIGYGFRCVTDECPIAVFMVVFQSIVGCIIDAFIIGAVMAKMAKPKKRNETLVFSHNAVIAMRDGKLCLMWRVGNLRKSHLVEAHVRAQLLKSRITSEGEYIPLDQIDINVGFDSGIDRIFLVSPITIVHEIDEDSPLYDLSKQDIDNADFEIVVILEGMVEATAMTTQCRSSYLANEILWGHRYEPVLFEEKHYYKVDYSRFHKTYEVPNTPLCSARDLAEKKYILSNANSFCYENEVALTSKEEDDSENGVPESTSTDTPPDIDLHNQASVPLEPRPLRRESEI
Description: Ion channel screening. […] Human Kir2.1 currents were evoked from a holding potential of -20 mV by a series of 10 500 msec pulses to -120 mV using a 200 msec interval between pulses. The parameters measured were the amplitudes of the instantaneous inward currents evoked on stepping to -120 mV for the 1st pulse and the maximum inward current at the end of the 10th hyperpolarizing pulse. For all experiments, data were filtered for seal quality, seal drop, and current amplitude.

[1] = Toxicokinetics in rats, twice weekly IV for 29 d; assay type: in vivo, Sprague-Dawley rats
Procedure: (§1) Ninety-six male and female Sprague-Dawley rats (6–7 weeks old) were received from Charles River Laboratories (Raleigh, NC) catheterized via a femoral vein prior to arrival. Animals were acclimated in individual stainless-steel cages with access to water and Certified Rodent Diet #2014 C (Envigo RMS) ad libitum for 6 d prior to study initiation. Environmental controls were set to maintain a temperature range of 20 to 26°C, a relative humidity range of 30 to 70%, eight or greater air changes/h, and a 12-h light/dark cycle. Animals were infused with sterile isotonic (0.9%) saline for a minimum of 4 d (0.20 mL/h for males or 0.15 mL/h for females) during the predose phase. At initiation of dosing, animals were 8 to 9 weeks old, and body weights ranged from 283 to 341 g for males and 188 to 238 g for females. Gamitrinib formulated as indicated above was administered by IV infusion on d 4, 8, 11, 15, 18, 22, 25, and 29 of the dosing phase at 1, 10, 25 mg/kg/dose and dose volume of 5 mL/kg. The vehicle control administered with the same schedule contained 2.5% DMSO, 0.125% polysorbate 80, 0.031% lecithin, 1.25% sucrose and 4.375% dextrose. Animals were checked twice daily throughout the duration of the study for mortality, abnormalities, and signs of pain or distress. Detailed observations were conducted for each animal up to two times during the predose phase and for each toxicity animal prior to dosing on d 1, 8, 15, 22, and 29 of the dosing phase and on d 1, 7, and 14 of the recovery phase. Blood samples were collected on d. 1, 4 and 29 of the dosing phase 5 min, 1 h and 24 h post-dose, maintained on chilled cryoracks and centrifuged within 1 h of collection. Tissue samples harvested from each animal were embedded in paraffin, sectioned, and slides were prepared and stained with hematoxylin and eosin.

Sprague-Dawley rats = experiment: Toxicity in Sprague-Dawley rats; assay type: in vivo; conditions: for reduction in mean body weights: male rats, fully recoverable, not adverse
Procedure: as §1

CYP2C8 = target: T3, CYP2C8 (Homo sapiens, UniProt P10632); conditions: microsomes
T3 sequence (P10632 1-490): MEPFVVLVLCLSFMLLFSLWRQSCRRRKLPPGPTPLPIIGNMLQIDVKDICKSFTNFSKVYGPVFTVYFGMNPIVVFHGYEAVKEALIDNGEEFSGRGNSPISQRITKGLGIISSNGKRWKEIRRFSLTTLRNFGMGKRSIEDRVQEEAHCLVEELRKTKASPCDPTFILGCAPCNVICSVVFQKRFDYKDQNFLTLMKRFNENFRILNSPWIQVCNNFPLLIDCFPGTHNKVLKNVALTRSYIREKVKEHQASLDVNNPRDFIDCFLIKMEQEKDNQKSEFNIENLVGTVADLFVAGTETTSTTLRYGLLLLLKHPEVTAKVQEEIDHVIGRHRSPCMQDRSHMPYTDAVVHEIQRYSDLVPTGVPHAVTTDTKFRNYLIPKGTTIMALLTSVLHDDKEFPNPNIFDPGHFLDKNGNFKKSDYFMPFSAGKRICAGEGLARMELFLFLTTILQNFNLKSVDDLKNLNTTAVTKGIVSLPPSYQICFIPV
Procedure: (§2) CYP inhibition in liver microsomes. […] Samples were analyzed for metabolite formation by LC-MS/MS. The results were expressed using the peak area ratio of analyte to internal standard, based on the calibration curves.
(§3) Where Range=fitted uninhibited value, s=slope factor, x=inhibitor concentration, y=% control activity.

CYP2C9 = CYP2C9 (Homo sapiens, UniProt P11712); conditions: microsomes
Procedure: as §2, §3

CYP3A4 = CYP3A4 (Homo sapiens, UniProt P08684); conditions: microsomes
Procedure: as §2, §3

tumor cell = test system: tumor cell; parameters: method as in PMID 19229106, PMID 29348817; conditions: in culture; read-out: IC50 of tumor cell killing; cited from earlier work

Sequence of CYP3A4 (P08684 whole entry): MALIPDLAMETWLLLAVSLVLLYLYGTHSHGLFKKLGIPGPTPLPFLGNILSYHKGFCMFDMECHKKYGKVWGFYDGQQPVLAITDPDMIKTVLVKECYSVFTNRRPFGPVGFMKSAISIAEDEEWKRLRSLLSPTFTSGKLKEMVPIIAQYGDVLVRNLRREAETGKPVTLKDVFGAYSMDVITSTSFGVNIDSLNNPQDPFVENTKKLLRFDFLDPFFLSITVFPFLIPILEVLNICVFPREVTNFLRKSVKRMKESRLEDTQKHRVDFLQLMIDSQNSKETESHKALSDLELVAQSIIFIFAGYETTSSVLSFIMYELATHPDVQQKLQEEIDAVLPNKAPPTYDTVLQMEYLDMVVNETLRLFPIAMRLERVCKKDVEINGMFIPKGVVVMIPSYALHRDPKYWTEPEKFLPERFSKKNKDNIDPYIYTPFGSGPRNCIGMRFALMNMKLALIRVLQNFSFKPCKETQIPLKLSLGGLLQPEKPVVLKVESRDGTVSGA
Sequence of CYP2C9 (P11712 whole entry): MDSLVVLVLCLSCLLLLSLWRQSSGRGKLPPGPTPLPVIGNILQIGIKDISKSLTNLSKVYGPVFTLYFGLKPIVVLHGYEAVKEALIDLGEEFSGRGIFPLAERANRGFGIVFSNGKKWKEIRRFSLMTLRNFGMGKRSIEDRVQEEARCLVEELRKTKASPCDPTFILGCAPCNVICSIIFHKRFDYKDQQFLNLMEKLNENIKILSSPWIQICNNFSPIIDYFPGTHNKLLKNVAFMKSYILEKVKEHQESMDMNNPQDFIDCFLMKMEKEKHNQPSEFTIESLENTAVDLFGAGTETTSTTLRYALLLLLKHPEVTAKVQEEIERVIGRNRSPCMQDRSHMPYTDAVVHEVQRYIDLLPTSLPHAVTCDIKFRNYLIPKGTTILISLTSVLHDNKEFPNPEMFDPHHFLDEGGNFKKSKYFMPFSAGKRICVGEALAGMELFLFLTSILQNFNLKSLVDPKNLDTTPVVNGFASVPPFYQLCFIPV

Compound: COC1C=CC=C(C)C(=O)NC2=CC(=O)C(NCCCCCC[P+](c3ccccc3)(c3ccccc3)c3ccccc3)=C(CC(C)CC(OC)C(O)C(C)C=C(C)C1OC(N)=O)C2=O.F[P-](F)(F)(F)(F)F (stereo not shown) [Gamitrinib]
- IC50 (CYP1A2): 32900 nM
- inhibition of Kir2.1 currents (Kir2.1): −7.3 ± 3.4%
- drug accumulation ([1]; Cmax and AUC0–24 d 4 vs d 29): no drug accumulation after multiple doses
- AUC0–24 ([1]; rat, in vivo, 1 mg/kg): 174 ng·h/mL
- AUC0–24 ([1]; rat, in vivo, 10 mg/kg): 1300 ng·h/mL
- CLSS ([1]; rat, in vivo, iv, 25 mg/kg): 84.83 to 131.33 mL/min/kg
- VSS ([1]; rat, in vivo, iv, 25 mg/kg): 12.2 to 90.0 L/kg
- reduction in mean body weights (Sprague-Dawley rats; 10 mg/kg/dose): −5.5%
- reduction in mean body weights (Sprague-Dawley rats; 25 mg/kg/dose): −5.7%
- urinalysis and ophthalmic findings (Sprague-Dawley rats; rats): No effects on urinalysis or ophthalmic changes
- serum urea nitrogen (UN) and creatinine concentrations (Sprague-Dawley rats; rats, 25 mg/kg/dose): Minimally to mildly higher
- kidney microscopic findings (Sprague-Dawley rats; rats, 25 mg/kg/dose, persisted to end of recovery): tubular degeneration/regeneration
- non-observed adverse effect level (NOAEL) (Sprague-Dawley rats; rats, IV twice weekly for 29 d): 1 mg/kg/dose
- severely toxic dose in 10% of the animals (STD 10) (Sprague-Dawley rats; rats, IV twice weekly for 29 d): 10 mg/kg/dose
- alterations in clinical chemistry parameters (Sprague-Dawley rats; rats, highest dose level tested): mildly to moderately higher neutrophil, and platelet (Plts) counts, minimally prolonged partial thromboplastin time (PT), lower albumin, higher globulin, and alkaline phosphatase concentrations
- Gamitrinib-related clinical observations (Sprague-Dawley rats; rats, ≥10 mg/kg/dose): inguinal swelling, piloerection, hypoactivity, and sensitivity to touch at the infusion site
- microscopic findings at infusion site (Sprague-Dawley rats; rats, ≥10 mg/kg/dose, both sexes, persisted through recovery): mixed cell inflammation at the catheter/infusion site
- Gamitrinib-related mortality (Sprague-Dawley rats; toxicity animals, 10 mg/kg/dose): one male
- Gamitrinib-related mortality (Sprague-Dawley rats; toxicity animals, 25 mg/kg/dose, severe inflammation and marked hemorrhage at infusion site): two males, one female
- Gamitrinib-related mortality (Sprague-Dawley rats; toxicokinetic animals, 10 mg/kg/dose): two toxicokinetic females
- Gamitrinib-related mortality (Sprague-Dawley rats; toxicokinetic animals, 25 mg/kg/dose): one toxicokinetic female
- IC50 (CYP2C8): 8000 nM
- IC50 (CYP2C9): 1100 nM
- IC50 (CYP3A4): 120 to 200 nM
- IC50 (tumor cell): 1000 to 4000 nM
